Test results published in PubChem BioAssay AID1963839 (Molecular Pharmacology Branch, DTP, NCI, 2024).

Test system: 817829-284-R-J1-PDC complex spheroid viability
Assay: Anticancer human tumor 817829-284-R-J1-PDC patient-derived colon adenocarcinoma cell line growth inhibition [POLQ]
Settings: for IC50: curve of first compound; for viability, T/C: stronger effect = lower value
Method in brief: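 Patient-derived tumour cells were co-cultured with HUVEC and mesenchymal stem cells as multicellular spheroids at 37 °C. They were treated with POLQ inhibitors (novobiocin, ART-558, RP6685) alone or combined with other agents. Top concentrations were at or near clinical Cmax (otherwise 10 microM; SN-38 at 1 microM), decreasing in half-log steps.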

[1] = second compound 0.0316 µM, first compound 0.0316 µM
[2] = second compound 0.0316 µM, first compound 0.1 µM
[3] = second compound 0.0316 µM, first compound 0.316 µM
[4] = second compound 0.0316 µM, first compound 1 µM
[5] = second compound 0.0316 µM, first compound 3.16 µM
[6] = second compound 0.0316 µM, first compound 10 µM
[7] = second compound 0.1 µM, first compound 0.0316 µM
[8] = second compound 0.1 µM, first compound 0.1 µM
[9] = second compound 0.1 µM, first compound 0.316 µM
[10] = second compound 0.1 µM, first compound 1 µM
[11] = second compound 0.1 µM, first compound 3.16 µM
[12] = second compound 0.1 µM, first compound 10 µM
[13] = second compound 0.316 µM, first compound 0.0316 µM
[14] = second compound 0.316 µM, first compound 0.1 µM
[15] = second compound 0.316 µM, first compound 0.316 µM
[16] = second compound 0.316 µM, first compound 1 µM
[17] = second compound 0.316 µM, first compound 3.16 µM
[18] = second compound 0.316 µM, first compound 10 µM
[19] = second compound 1 µM, first compound 0.0316 µM
[20] = second compound 1 µM, first compound 0.1 µM
[21] = second compound 1 µM, first compound 0.316 µM
[22] = second compound 1 µM, first compound 1 µM
[23] = second compound 1 µM, first compound 3.16 µM
[24] = second compound 1 µM, first compound 10 µM
[25] = second compound 3.16 µM, first compound 0.0316 µM
[26] = second compound 3.16 µM, first compound 0.1 µM
[27] = second compound 3.16 µM, first compound 0.316 µM
[28] = second compound 3.16 µM, first compound 1 µM
[29] = second compound 3.16 µM, first compound 3.16 µM
[30] = second compound 3.16 µM, first compound 10 µM
[31] = second compound 10 µM, first compound 0.0316 µM
[32] = second compound 10 µM, first compound 0.1 µM
[33] = second compound 10 µM, first compound 0.316 µM
[34] = second compound 10 µM, first compound 1 µM
[35] = second compound 10 µM, first compound 3.16 µM
[36] = second compound 10 µM, first compound 10 µM
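Further: spheroids exposed to compounds for 7 days.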
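Wherever viability, T/C is given: 100% = DMSO vehicle-treated spheroids.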

C#Cc1c(F)ccc2cc(O)cc(-c3ncc4c(N5CC6CCC(C5)N6)nc(OCC56CCCN5CC(F)C6)nc4c3F)c12 (stereo unspecified) + COC1C(OC(N)=O)C(O)C(Oc2ccc3c(O)c(NC(=O)c4ccc(O)c(CC=C(C)C)c4)c(=O)oc3c2C)OC1(C)C
IC50 (second compound 0.0316 µM): > 10 µM
IC50 (second compound 0.1 µM): > 10 µM
IC50 (second compound 0.316 µM): > 10 µM
IC50 (second compound 1 µM): 7.86 µM
IC50 (second compound 3.16 µM): > 10 µM
IC50 (second compound 10 µM): 8.11 µM
viability, T/C [1]: 88.1%
viability, T/C [2]: 92.5%
viability, T/C [3]: 135%
viability, T/C [4]: 119%
viability, T/C [5]: 102%
viability, T/C [6]: 93.4%
viability, T/C [7]: 95.6%
viability, T/C [8]: 107%
viability, T/C [9]: 102%
viability, T/C [10]: 114%
viability, T/C [11]: 89.2%
viability, T/C [12]: 106%
viability, T/C [13]: 88.1%
viability, T/C [14]: 105%
viability, T/C [15]: 87.5%
viability, T/C [16]: 116%
viability, T/C [17]: 127%
viability, T/C [18]: 66.5%
viability, T/C [19]: 110%
viability, T/C [20]: 140%
viability, T/C [21]: 109%
viability, T/C [22]: 126%
viability, T/C [23]: 101%
viability, T/C [24]: 36.5%
viability, T/C [25]: 117%
viability, T/C [26]: 121%
viability, T/C [27]: 99.1%
viability, T/C [28]: 113%
viability, T/C [29]: 113%
viability, T/C [30]: 56.7%
viability, T/C [31]: 87.3%
viability, T/C [32]: 113%
viability, T/C [33]: 144%
viability, T/C [34]: 101%
viability, T/C [35]: 132%
viability, T/C [36]: 35.4%

C=CC(=O)N1CCN(c2nc(=O)n(-c3c(C)ccnc3C(C)C)c3nc(-c4c(O)cccc4F)c(F)cc23)C(C)C1 (stereo unspecified) + COC1C(OC(N)=O)C(O)C(Oc2ccc3c(O)c(NC(=O)c4ccc(O)c(CC=C(C)C)c4)c(=O)oc3c2C)OC1(C)C
IC50 (second compound 0.0316 µM): > 10 µM
IC50 (second compound 0.1 µM): > 10 µM
IC50 (second compound 0.316 µM): > 10 µM
IC50 (second compound 1 µM): > 10 µM
IC50 (second compound 3.16 µM): > 10 µM
IC50 (second compound 10 µM): > 10 µM
viability, T/C [1]: 87.6%
viability, T/C [2]: 125%
viability, T/C [3]: 89.3%
viability, T/C [4]: 99.9%
viability, T/C [5]: 121%
viability, T/C [6]: 67.3%
viability, T/C [7]: 124%
viability, T/C [8]: 100%
viability, T/C [9]: 133%
viability, T/C [10]: 83.3%
viability, T/C [11]: 118%
viability, T/C [12]: 76.2%
viability, T/C [13]: 115%
viability, T/C [14]: 127%
viability, T/C [15]: 104%
viability, T/C [16]: 97.4%
viability, T/C [17]: 95.7%
viability, T/C [18]: 59.6%
viability, T/C [19]: 132%
viability, T/C [20]: 104%
viability, T/C [21]: 77.8%
viability, T/C [22]: 140%
viability, T/C [23]: 89.3%
viability, T/C [24]: 51.2%
viability, T/C [25]: 102%
viability, T/C [26]: 108%
viability, T/C [27]: 123%
viability, T/C [28]: 97%
viability, T/C [29]: 80.4%
viability, T/C [30]: 72.2%
viability, T/C [31]: 78.8%
viability, T/C [32]: 96.8%
viability, T/C [33]: 80.7%
viability, T/C [34]: 98.2%
viability, T/C [35]: 107%
viability, T/C [36]: 57.3%

CC1COCCN1c1cc(C2(O)CC3CCC(C2)O3)c2cnn(-c3ccn[nH]3)c2n1 (stereo unspecified) + COC1C(OC(N)=O)C(O)C(Oc2ccc3c(O)c(NC(=O)c4ccc(O)c(CC=C(C)C)c4)c(=O)oc3c2C)OC1(C)C
IC50 (second compound 0.0316 µM): < 0.0316 µM
IC50 (second compound 0.1 µM): < 0.0316 µM
IC50 (second compound 0.316 µM): < 0.0316 µM
IC50 (second compound 1 µM): < 0.0316 µM
IC50 (second compound 3.16 µM): < 0.0316 µM
IC50 (second compound 10 µM): < 0.0316 µM
viability, T/C [1]: 18.5%
viability, T/C [2]: 10.7%
viability, T/C [3]: 3.93%
viability, T/C [4]: 3.7%
viability, T/C [5]: 3.65%
viability, T/C [6]: 2.96%
viability, T/C [7]: 29.2%
viability, T/C [8]: 8.78%
viability, T/C [9]: 4.49%
viability, T/C [10]: 2.72%
viability, T/C [11]: 3.01%
viability, T/C [12]: 1.82%
viability, T/C [13]: 25.9%
viability, T/C [14]: 8.28%
viability, T/C [15]: 5.16%
viability, T/C [16]: 3.2%
viability, T/C [17]: 2.69%
viability, T/C [18]: 2.57%
viability, T/C [19]: 24.7%
viability, T/C [20]: 9.42%
viability, T/C [21]: 4.54%
viability, T/C [22]: 3.29%
viability, T/C [23]: 3.01%
viability, T/C [24]: 1.8%
viability, T/C [25]: 27.9%
viability, T/C [26]: 10.5%
viability, T/C [27]: 4.65%
viability, T/C [28]: 3.82%
viability, T/C [29]: 2.76%
viability, T/C [30]: 2.53%
viability, T/C [31]: 21.5%
viability, T/C [32]: 9.85%
viability, T/C [33]: 5.03%
viability, T/C [34]: 4.12%
viability, T/C [35]: 2.91%
viability, T/C [36]: 2.64%
